Measurements published in paper PMC5034290, “Predicted structure of a Minus-C OBP from Batocera horsfieldi (Hope) suggests an intermediate structure in evolution of OBPs” (Scientific Reports, 2016).

Assays:
[1] = biological target: T1, BhorOBPm2 (Batocera horsfieldi, UniProt D4P5A8); assay: 1-NPN fluorescence competition binding; conditions: pH 7.4, 30 mM Tris-HCl, room temperature, 2 μM protein, 2 μM 1-NPN
T1 construct: antennal cDNA, ORF 435 bp, 145 residues printed incl; 21-residue signal peptide; reverse primer encodes ETFIFF-stop

[2] = tested on: CquiOBP1; conditions: cited from earlier work
[3] = biological target: T1, BhorOBPm2; assay: 1-NPN fluorescence competition binding; conditions: pH 7.4, 30 mM Tris-HCl, room temperature, 2 μM protein, 2 μM 1-NPN; reciprocal Ki, not Ki itself
[4] = biological target: T1, BhorOBPm2; assay: direct 1-NPN fluorescence titration, Scatchard plot; format: binding; conditions: 30 mM Tris-HCl, room temperature, 2 μM protein, 0-28 μM 1-NPN; fluorescent probe
[5] = tested on: BhorOBPm2; assay: Fluorescence competition-binding assay with 1-NPN probe, wild-type BhorOBPm2; parameters: species or system Batocera horsfieldi; conditions: BhorOBPm2, discussion
Description: Fluorescence competition-binding assays were performed to determine the binding affinity of the BhorOBPm2 protein for various ligands using 1-NPN as a fluorescent probe. […] The fluorescence of 1-NPN was excited at 337 nm, and emission was recorded at between 350 nm and 600 nm using a RF-5301PC fluorescence spectrophotometer (Shimadzu, Kyoto, Japan), a 1-cm light path, and a quartz cuvette. The competitive binding of ligands was measured using 1-NPN (2 μM) as the fluorescent probe with a stoichiometry of 1:1 (protein:ligand), with the final concentration of each ligand added to the sample ranging from 0 μM to 20 μM. […] The binding data were obtained from three independent measurements. […] Binding affinities (Ki) of the OBPs for each ligand were determined based on the IC50 value (the initial fluorescence level of the competitor concentration reduced by half) using the equation: Ki = [IC50]/(1 + [1-NPN]/K1-NPN), where [1-NPN] is the free concentration of 1-NPN, and K1-NPN is the dissociation constant of the complex BhorOBPm2/1-NPN.

T1 sequence (D4P5A8 entry or part of it): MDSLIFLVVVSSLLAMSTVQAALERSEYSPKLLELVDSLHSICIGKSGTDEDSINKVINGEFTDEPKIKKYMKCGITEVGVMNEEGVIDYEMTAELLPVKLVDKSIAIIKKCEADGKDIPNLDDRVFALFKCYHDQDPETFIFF

| Compound | 1/Ki*1000 [1] | other results |
| --- | --- | --- |
| CCCCCCCCCC=O [decanal] | 102.21 1/Ki(uM)*1000 | binding affinity (in words) [2]: high binding affinities |
| Farnesene | – | 1/Ki(μM) × 1000 [3]: 1159.11 1000/μM (reciprocal of Ki in μM, times 1000) |
| CCCCCCCC=O [octanal] | 54.09 1/Ki(uM)*1000 | – |
| c1ccc(Nc2cccc3ccccc23)cc1 [N-phenyl-1-naphthylamine] | – | Kd [4]: The dissociation constants (Kd) of the OBPs for 1-NPN were calculated from Scatchard plots |
| CCCCCCCCCCCCCCCCCCCCCCCCCCC [heptacosane] | 45.56 1/Ki(uM)*1000 | binding affinity (in words) [5]: low binding affinities |
| CCCCCCCCCCCCCCCCCCCCCCCCC [pentacosane] | 1.89 1/Ki(uM)*1000 | binding affinity (in words) [5]: low binding affinities |
| CCCCCCCC=O [Octanal, octanal] | – | binding affinity (in words) [2]: high binding affinities |
| CCCCCCCCC=O [nonanal] | 50.40 1/Ki(uM)*1000 | binding affinity (in words) [2]: high binding affinities |
| CCCCCCCCCCCC(C)=O [2-tridecanone] | 353.05 1/Ki(uM)*1000 | – |
| farnesene | – | binding affinity (in words) [5]: highest binding affinity |
| CCCCCCCCCCCCC [tridecane] | 262.09 1/Ki(uM)*1000 | – |
| CCCCCCCCCCCCCC [tetradecane] | 94.91 1/Ki(uM)*1000 | – |
